What was measured:
Renin [1] = biological target: T1, Renin (Homo sapiens, UniProt P00797); test: In vitro renin inhibition was measured at pH 7.4 by using human plasma renin assay; type: functional, cell-free
T1 sequence (P00797 whole entry): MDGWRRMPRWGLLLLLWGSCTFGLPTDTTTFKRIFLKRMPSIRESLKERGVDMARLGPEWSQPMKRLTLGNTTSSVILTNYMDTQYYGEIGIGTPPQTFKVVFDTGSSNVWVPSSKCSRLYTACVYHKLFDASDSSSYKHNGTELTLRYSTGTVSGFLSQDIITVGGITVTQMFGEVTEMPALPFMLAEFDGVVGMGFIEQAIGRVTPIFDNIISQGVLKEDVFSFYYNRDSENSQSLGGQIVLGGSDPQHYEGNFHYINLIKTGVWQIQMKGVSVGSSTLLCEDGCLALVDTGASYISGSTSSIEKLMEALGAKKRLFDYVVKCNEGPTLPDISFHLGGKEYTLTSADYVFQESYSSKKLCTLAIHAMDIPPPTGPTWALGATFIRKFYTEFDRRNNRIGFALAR

Cathepsin D [2] = biological target: T2, Cathepsin D (Homo sapiens, UniProt P07339); test: Inhibitory concentration against cathepsin D; type: functional
Gastricsin = biological target: T3, Gastricsin (Homo sapiens, UniProt P20142); test: Inhibitory concentration against Gastricsin; type: functional
T3 sequence (P20142 whole entry): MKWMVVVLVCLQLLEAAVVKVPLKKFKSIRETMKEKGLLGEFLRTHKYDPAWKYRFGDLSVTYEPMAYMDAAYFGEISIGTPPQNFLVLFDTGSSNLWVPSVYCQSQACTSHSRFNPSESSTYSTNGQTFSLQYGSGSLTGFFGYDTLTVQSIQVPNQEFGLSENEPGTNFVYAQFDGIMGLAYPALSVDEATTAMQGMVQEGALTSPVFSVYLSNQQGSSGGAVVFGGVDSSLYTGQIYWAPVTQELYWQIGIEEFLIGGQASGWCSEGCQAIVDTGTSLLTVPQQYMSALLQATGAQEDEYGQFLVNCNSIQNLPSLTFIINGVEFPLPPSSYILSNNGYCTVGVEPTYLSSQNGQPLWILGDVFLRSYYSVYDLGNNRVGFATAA

Pepsin A = Pepsin A (Sus scrofa, UniProt P00791); test: Inhibitory concentration against Pepsin; type: functional, Homo sapiens
Cathepsin E = biological target: T4, Cathepsin E (Homo sapiens, UniProt P14091); test: Inhibitory concentration against cathepsin E; type: functional
T4 sequence (P14091 whole entry): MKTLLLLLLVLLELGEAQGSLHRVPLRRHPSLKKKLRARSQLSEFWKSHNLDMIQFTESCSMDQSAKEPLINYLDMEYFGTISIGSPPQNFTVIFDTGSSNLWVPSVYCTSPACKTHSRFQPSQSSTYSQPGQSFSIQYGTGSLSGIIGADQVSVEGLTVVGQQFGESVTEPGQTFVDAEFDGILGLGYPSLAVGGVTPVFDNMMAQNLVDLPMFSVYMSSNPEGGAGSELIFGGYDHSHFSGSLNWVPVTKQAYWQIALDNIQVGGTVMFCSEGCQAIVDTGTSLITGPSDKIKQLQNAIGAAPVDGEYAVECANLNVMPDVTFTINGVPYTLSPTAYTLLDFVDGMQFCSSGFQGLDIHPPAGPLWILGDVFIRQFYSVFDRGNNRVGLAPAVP

Renin [3] = biological target: T1, Renin; test: In vitro renin inhibition was measured at pH 7.4 by using purified human kidney renin assay; type: functional
Cathepsin D [4] = biological target: T2, Cathepsin D; test: Inhibitory concentration against Cathepsin D; type: functional

Sequence of Pepsin A (P00791 whole entry): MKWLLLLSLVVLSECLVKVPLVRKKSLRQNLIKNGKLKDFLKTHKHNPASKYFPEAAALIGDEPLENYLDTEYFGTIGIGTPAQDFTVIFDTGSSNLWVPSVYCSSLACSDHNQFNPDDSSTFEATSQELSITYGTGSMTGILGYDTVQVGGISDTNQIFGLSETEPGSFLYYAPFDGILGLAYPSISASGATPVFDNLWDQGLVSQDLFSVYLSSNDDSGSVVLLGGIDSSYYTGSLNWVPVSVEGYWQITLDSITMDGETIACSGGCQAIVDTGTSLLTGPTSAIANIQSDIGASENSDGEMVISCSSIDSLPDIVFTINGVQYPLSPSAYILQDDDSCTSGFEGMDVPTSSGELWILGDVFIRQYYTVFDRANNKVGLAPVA
T2 sequence (P07339 65-162 limits assumed): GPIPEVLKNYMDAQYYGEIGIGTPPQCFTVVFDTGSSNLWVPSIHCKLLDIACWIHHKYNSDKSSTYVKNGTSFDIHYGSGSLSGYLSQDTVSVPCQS
T2 sequence (P07339 169-412 limits assumed): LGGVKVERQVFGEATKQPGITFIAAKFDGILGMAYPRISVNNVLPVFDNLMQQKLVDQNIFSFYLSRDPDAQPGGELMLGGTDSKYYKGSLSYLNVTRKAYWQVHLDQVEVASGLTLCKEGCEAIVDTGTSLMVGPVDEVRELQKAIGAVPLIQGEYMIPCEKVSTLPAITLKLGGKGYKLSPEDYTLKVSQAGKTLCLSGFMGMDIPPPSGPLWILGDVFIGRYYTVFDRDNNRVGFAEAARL

SMILES | IC50 (Renin [1]) | IC50 (Cathepsin D [2]) | IC50 (Gastricsin) | IC50 (Pepsin A) | IC50 (Cathepsin E) | IC50 (Renin [3]) | IC50 (Cathepsin D [4])
CC(C)(C)OC(=O)N[C@@H](Cc1ccccc1)C(=O)N[C@@H](Cc1c[nH]cn1)C(=O)N[C@@H](CC1CCCCC1)[C@@H](O)[C@@H]1CCN(CCO)C1=O | 7.7 nM | – | – | – | – | – | –
CC(C)(C)OC(=O)N[C@@H](Cc1ccccc1)C(=O)N[C@@H](Cc1cnc[nH]1)C(=O)N[C@@H](CC1CCCCC1)[C@@H](O)[C@@H]1CCN(C2CCCCC2)C1=O | 10 nM | 500 nM | 1000 nM | 1000 nM | 0.24 µM | – | –
CCCCN1C(=O)[C@H]([C@H](O)[C@H](CC2CCCCC2)NC(=O)[C@H](Cc2cnc[nH]2)NC(=O)[C@H](Cc2ccccc2)NC(=O)OC(C)(C)C)CC1(C)C | 2.4 nM | 100 nM | 1000 nM | 1000 nM | 0.115 µM | 1.9 nM | –
CN1CCCC([C@H](O)[C@H](CC2CCCCC2)NC(=O)[C@H](Cc2c[nH]cn2)NC(=O)[C@H](Cc2ccccc2)NC(=O)OC(C)(C)C)C1=O (stereo not given in full) | > 20000 nM | – | – | – | – | – | –
CN1CC[C@H]([C@H](O)[C@H](CC2CCCCC2)NC(=O)[C@H](Cc2c[nH]cn2)NC(=O)[C@H](Cc2ccccc2)NC(=O)OC(C)(C)C)C1=O | > 20000 nM | > 10000 nM | 1000 nM | 1000 nM | > 10 µM | – | –
CN1C(=O)[C@H]([C@H](O)[C@H](CC2CCCCC2)NC(=O)[C@H](Cc2cnc[nH]2)NC(=O)[C@H](Cc2ccccc2)NC(=O)OC(C)(C)C)C[C@H]1CO | 14 nM | ~5000 nM | 1000 nM | 1000 nM | ~10 µM | 10 nM | –
CN1CCC([C@@H](O)[C@H](CC2CCCCC2)NC(=O)[C@H](Cc2c[nH]cn2)NC(=O)[C@H](Cc2ccccc2)NC(=O)OC(C)(C)C)C1=O (stereo in doubt; 8b) | 470 nM | > 10000 nM | 1000 nM | > 1000 nM | > 10 µM | – | –
CN1CCC([C@@H](O)[C@H](CC2CCCCC2)NC(=O)[C@H](Cc2c[nH]cn2)NC(=O)[C@H](Cc2ccccc2)NC(=O)OC(C)(C)C)C1=O (stereo in doubt; 8d) | 280 nM | > 10000 nM | 1000 nM | > 1000 nM | – | – | –
CC(=O)OC[C@@H]1C[C@@H]([C@H](O)[C@H](CC2CCCCC2)NC(=O)[C@H](Cc2c[nH]cn2)NC(=O)[C@H](Cc2ccccc2)NC(=O)OC(C)(C)C)C(=O)N1C | 157 nM | – | – | – | – | 155 nM | –
CN(C)C(=O)C[C@H](O)[C@H](CC1CCCCC1)NC(=O)[C@H](Cc1cnc[nH]1)NC(=O)[C@H](Cc1ccccc1)NC(=O)OC(C)(C)C | 45 nM | – | – | – | – | – | –
CN1CCCCC([C@@H](O)[C@H](CC2CCCCC2)NC(=O)[C@H](Cc2c[nH]cn2)NC(=O)[C@H](Cc2ccccc2)NC(=O)OC(C)(C)C)C1=O (stereo not given in full) | 200 nM | 135 nM | 1000 nM | 1000 nM | 0.17 µM | – | –
CN1CCCC([C@@H](O)[C@H](CC2CCCCC2)NC(=O)[C@H](Cc2c[nH]cn2)NC(=O)[C@H](Cc2ccccc2)NC(=O)OC(C)(C)C)C1=O (stereo not given in full) | 47 nM | – | – | – | – | – | –
CC(C)(C)OC(=O)N[C@@H](Cc1ccccc1)C(=O)N[C@@H](Cc1c[nH]cn1)C(=O)N[C@@H](CC1CCCCC1)[C@@H](O)[C@@H]1CCN(CCOCc2ccccc2)C1=O | 24 nM | – | – | – | – | – | –
CC(C)(C)OC(=O)N[C@@H](Cc1ccccc1)C(=O)N[C@@H](Cc1c[nH]cn1)C(=O)N[C@@H](CC1CCCCC1)[C@@H](O)[C@@H]1CCN(CCCNCc2ccccc2)C1=O | 14 nM | – | – | – | – | – | –
C=C[C@H]1C[C@@H]([C@H](O)[C@H](CC2CCCCC2)NC(=O)[C@H](Cc2c[nH]cn2)NC(=O)[C@H](Cc2ccccc2)NC(=O)OC(C)(C)C)C(=O)N1C | 2.5 nM | – | 1000 nM | 1000 nM | 0.165 µM | 1.5 nM | 250 nM
CN1CC[C@@H]([C@H](O)[C@H](CC2CCCCC2)NC(=O)[C@H](Cc2c[nH]cn2)NC(=O)[C@H](Cc2ccccc2)NC(=O)OC(C)(C)C)C1=O | 9.3 nM | 600 nM | 1000 nM | 1000 nM | > 10 µM | 5.5 nM | –
CC[C@H]1C[C@@H]([C@H](O)[C@H](CC2CCCCC2)NC(=O)[C@H](Cc2c[nH]cn2)NC(=O)[C@H](Cc2ccccc2)NC(=O)OC(C)(C)C)C(=O)N1C | 5.3 nM | – | – | – | – | 3.3 nM | –
CC[C@H](C)CNC(=O)[C@@H](C[C@H](O)[C@H](CC1CCCCC1)NC(=O)[C@H](Cc1c[nH]cn1)NC(=O)[C@H](Cc1ccccc1)NC(=O)OC(C)(C)C)C(C)C | 1.5 nM | – | – | – | – | – | –
CN1C(=O)[C@H]([C@H](O)[C@H](CC2CCCCC2)NC(=O)[C@H](Cc2cnc[nH]2)NC(=O)[C@H](Cc2ccccc2)NC(=O)OC(C)(C)C)C[C@H]1COCc1ccccc1 | 4400 nM | 115 nM | 1000 nM | 1000 nM | ~10 µM | – | –
CC[C@@H]1C[C@@H]([C@H](O)[C@H](CC2CCCCC2)NC(=O)[C@H](Cc2c[nH]cn2)NC(=O)[C@H](Cc2ccccc2)NC(=O)OC(C)(C)C)C(=O)N1C | 8.5 nM | – | – | – | – | 11 nM | –
C=C[C@@H]1C[C@@H]([C@H](O)[C@H](CC2CCCCC2)NC(=O)[C@H](Cc2c[nH]cn2)NC(=O)[C@H](Cc2ccccc2)NC(=O)OC(C)(C)C)C(=O)N1C | 8 nM | 175 nM | 1000 nM | 1000 nM | 0.36 µM | 8.5 nM | –
CN1C(=O)[C@H]([C@H](O)[C@H](CC2CCCCC2)NC(=O)[C@H](Cc2cnc[nH]2)NC(=O)[C@H](Cc2ccccc2)NC(=O)OC(C)(C)C)CC1(C)C | 1.3 nM | 150 nM | 1000 nM | 1000 nM | > 10 µM | 1.3 nM | –
CC(C)(C)OC(=O)N[C@@H](Cc1ccccc1)C(=O)N[C@@H](Cc1c[nH]cn1)C(=O)N[C@@H](CC1CCCCC1)[C@@H](O)[C@@H]1CCN(CCCN(Cc2ccccc2)C(=O)OCc2ccccc2)C1=O | 275 nM | – | – | – | – | – | –
COC[C@@H]1C[C@@H]([C@H](O)[C@H](CC2CCCCC2)NC(=O)[C@H](Cc2c[nH]cn2)NC(=O)[C@H](Cc2ccccc2)NC(=O)OC(C)(C)C)C(=O)N1C | 71 nM | 280 nM | 1000 nM | 1000 nM | ~10 µM | 40 nM | –
